Source: patent publication US6713301B1, “Artificial T helper cell epitopes as immune stimulators for synthetic peptide immunogens” (United Biomedical, Inc., priority 1998, dated 2004)

B1: 99 (peptide)
chain: TAKSKKFPSYTATYQFGGKKKIITITRIITIITTIDGGCGETYQSRVTHPHLPRALMRSTTKC

Test system: human IgE myeloma protein
Experiment: Human IgE ELISA of guinea pig immune sera
Parameters: species or system guinea pigs
Conditions: in vivo
Description: These peptide immunogens were used to immunize groups of 3 guinea pigs using 100 μg/dose, formulated in CFA at week 0, IFA at weeks 3 and 6, and administered intramuscularly. For comparison, a group of two animals were immunized with a peptide/KLH carrier protein conjugate at 200 μg/dose, similarly administered. ELISA results of serum samples collected at week 8 are shown. In the ELISA a human IgE myeloma protein (American Biosystem, Inc. cat no. A113) was used as the solid-phase immunoadsorbant. The procedure used was identical to the peptide-based ELISAs described previously, except IgE myeloma was used as the solid phase immunoadsorbant. […] The inclusion of the Inv domain sequence (SEQ ID NO:78) augmented the immunogenicity, as shown by the enhanced immunogenicity of SEQ ID NO:99 over SEQ ID NO:98.

Molecule	Log10 ELISA (average for animals of the group)	No. responding
98 (KKKIITITRIITIITTIDGGCGETYQSRVTHPHLPRALMRSTTKC) [compound 98]	2.35 Log10	3/3
B1	3.28 Log10	3/3
